# Test system: Hep3B cells (hepatocellular carcinoma cell line)
# Assay: In vitro MTS cell viability assay (NCI-60 methodology), Hep3B
# Format: cell-based
# Conditions: Homo sapiens, 48 h, Table 8, MTS, 2 days drug incubation, 50% reduction vs time zero, read-out: Hep3B LC50
# Summary of the method: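 Following NCI-60 method, MTS viability of Hep3B measured 24 h after plating (time zero) and after a further 2-day exposure to five concentrations (2-fold series). LC50 defined where [(Ti−Tz)/Tz]×100 = −50.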
row,Structure (SMILES),LC50 [nM]
1,"CC(C)N1CC[C@H](n2ncc3c(NC(=O)c4ccc([N+](=O)[O-])s4)nc(-c4ccc(F)nc4)nc32)C1 [Compound 8-1, (S)—N-(6-(6-fluoropyridin-3-yl)-1-(1-isopropylpyrrolidin-3-yl)-1H-pyrazolo[3,4-d]pyrimidin-4-yl)-5-nitrothiophene-2-carboxamide]",> 3000
2,"CC(=O)N1CC[C@H](n2ncc3c(NC(=O)c4ccc([N+](=O)[O-])s4)nc(-c4ccc(F)nc4)nc32)C1 [Compound 8-2, (S)—N-(1-(1-acetylpyrrolidin-3-yl)-6-(6-fluoropyridin-3-yl)-1H-pyrazolo[3,4-d]pyrimidin-4-yl)-5-nitrothiophene-2-carboxamide]",> 3000
3,"C=CC(=O)N1CC[C@H](n2ncc3c(NC(=O)c4ccc([N+](=O)[O-])s4)nc(-c4ccc(F)nc4)nc32)C1 [Compound 8-3, (S)—N-(1-(1-acryloylpyrrolidin-3-yl)-6-(6-fluoropyridin-3-yl)-1H-pyrazolo[3,4-d]pyrimidin-4-yl)-5-nitrothiophene-2-carboxamide]",> 3000
4,"CC(C)(C)C(=O)N1CC[C@H](n2ncc3c(NC(=O)c4ccc([N+](=O)[O-])s4)nc(-c4ccc(F)nc4)nc32)C1 [Compound 8-4, (S)—N-(6-(6-fluoropyridin-3-yl)-1-(1-pivaloylpyrrolidin-3-yl)-1H-pyrazolo[3,4-d]pyrimidin-4-yl)-5-nitrothiophene-2-carboxamide]",1490
5,"CCOC(=O)N1CCC(n2ncc3c(NC(=O)c4ccc([N+](=O)[O-])s4)nc(-c4ccc(F)nc4)nc32)C1 [Compound 8-5, ethyl (S)-3-(6-(6-fluoropyridin-3-yl)-4-(5-nitrothiophene-2-carboxamide)-1H-pyrazolo[3,4-d]pyrimidin-1-yl)pyrrolidine-1-carboxylate]",> 2000
6,"CCOC(=O)N1CC[C@@H](n2ncc3c(NC(=O)c4ccc([N+](=O)[O-])s4)nc(-c4ccc(F)nc4)nc32)C1 [Compound 8-6, ethyl (R)-3-(6-(6-fluoropyridin-3-yl)-4-(5-nitrothiophene-2-carboxamido)-1H-pyrazolo[3,4-d]pyrimidin-1-yl)pyrrolidine-1-carboxylate]",> 2000
7,"CC(C)(C)OC(=O)N1CC[C@H](n2ncc3c(NC(=O)c4ccc([N+](=O)[O-])s4)nc(-c4ccc(F)nc4)nc32)C1 [Compound 8-7, tert-butyl (S)-3-(6-(6-fluoropyridin-3-yl)4-(5-nitrothiophene-2-carboxamido)-1H-pyrazolo[3,4-d]pyrimidin-1-yl)pyrrolidine-1-carboxylate]",1490
8,"O=C(Nc1nc(-c2ccc(F)nc2)nc2c1cnn2C1CCCC1)c1ccc([N+](=O)[O-])s1 [Compound 8-8, N-(1-cyclopentyl-6-(6-fluoropyridin-3-yl)-1H-pyrazolo[3,4-d]pyrimidin-4-yl)-5-nitrothiophene-2-carboxamide]",1170
9,"O=C(Nc1nc(-c2ccc(Cl)cc2)nc2c1cnn2C1CCCC1)c1ccc([N+](=O)[O-])s1 [Compound 8-9, N-(6-(4-chlorophenyl)-1-cyclopentyl-1H-pyrazolo[3,4-d]pyrimidin-4-yl)-5-nitrothiophene-2-carboxamide]",940
10,"O=C(Nc1nc(-c2ccc(F)cc2)nc2c1cnn2C1CCCCCC1)c1ccc([N+](=O)[O-])s1 [Compound 8-10, N-(1-cycloheptyl-6-(4-fluorophenyl)-1H-pyrazolo[3,4-d]pyrimidin-4-yl)-5-nitrothiophene-2-carboxamide]",830
11,"COC(=O)c1ccc(-c2nc(NC(=O)c3ccc([N+](=O)[O-])s3)c3cnn(C4CCCCCC4)c3n2)cc1 [Compound 8-12, methyl 4-(1-cycloheptyl-4-(5-nitrothiophene-2-carboxamido)-1H-pyrazolo[3,4-d]pyrimidin-6-yl)benzoate]",470
12,"C[C@@H]1C[C@@H](n2ncc3c(NC(=O)c4ccc([N+](=O)[O-])s4)nc(-c4ccc(F)cc4)nc32)CC(C)(C)C1 [Compound 8-13, N-(6-(4-fluorophenyl)-1-((1R,5S)-3,3,5-trimethylcyclohexyl)-1H-pyrazolo[3,4-d]pyrimidin-4-yl)-5-nitrothiophene-2-carboxamide]",900
13,"C[C@@H]1C[C@@H](n2ncc3c(NC(=O)c4ccc([N+](=O)[O-])s4)nc(-c4ccc(F)nc4)nc32)CC(C)(C)C1 [Compound 8-14, N-(6-(6-fluoropyridin-3-yl)-1-((1R,5S)-3,3,5-trimethylcyclohexyl)-1H-pyrazolo[3,4-d]pyrimidin-4-yl)-5-nitrothiophene-2-carboxamide]",620
14,"C[C@@H]1C[C@@H](n2ncc3c(NC(=O)c4ccc([N+](=O)[O-])s4)nc(-c4ccc(Cl)cc4)nc32)CC(C)(C)C1 [Compound 8-15, N-(6-(4-chlorophenyl)-1-((1R,5S)-3,3,5-trimethylcyclohexyl)-1H-pyrazolo[3,4-d]pyrimidin-4-yl)-5-nitrothiophene-2-carboxamide]",1270
15,"C[C@@H]1C[C@@H](n2ncc3c(NC(=O)c4ccc([N+](=O)[O-])s4)nc(-c4ccc(Cl)nc4)nc32)CC(C)(C)C1 [Compound 8-16, N-(6-(6-chloropyridin-3-yl)-1-((1R,5S)-3,3,5-trimethylcyclohexyl)-1H-pyrazolo[3,4-d]pyrimidin-4-yl)-5-nitrothiophene-2-carboxamide]",590

# Same assay, conditions: Homo sapiens, 48 h, Table 9, MTS, 2 days drug incubation, 50% reduction vs time zero, read-out: Hep3B LC50
row,Structure (SMILES),LC50 [nM]
1,CC(C)N1CCC(n2ncc3c(NC(=O)c4ccc([N+](=O)[O-])s4)nc(-c4ccc(F)nc4)nc32)CC1 [Compound 9-1],1250
2,"CCOC(=O)N1CCC(n2ncc3c(NC(=O)c4ccc([N+](=O)[O-])s4)nc(-c4ccc(F)nc4)nc32)CC1 [Compound 9-2, ethyl 4-(6-(6-fluoropyridin-3-yl)-4-(5-nitrothiophene-2-carboxamide)-1H-pyrazolo [3,4-d]pyrimidin-1-yl)piperidine-1-carboxylate]",> 5000
3,"CC(C)(C)OC(=O)N1CCC(n2ncc3c(NC(=O)c4ccc([N+](=O)[O-])s4)nc(-c4ccc(F)nc4)nc32)CC1 [Compound 9-4, tert-butyl 4-(6-(6-fluoropyridin-3-yl)-4-(5-nitrothiophene-2-carboxamido)-1H-pyrazolo[3,4-d]pyrimidin-1-yl)piperidine-1-carboxylate]",930
4,C=CC(=O)N1CCC(n2ncc3c(NC(=O)c4ccc([N+](=O)[O-])s4)nc(-c4ccc(F)nc4)nc32)CC1 [Compound 9-6],1250
5,"CCCC(=O)N1CCC(n2ncc3c(NC(=O)c4ccc([N+](=O)[O-])s4)nc(-c4ccc(F)nc4)nc32)CC1 [Compound 9-7, N-(1-(1-butyrylpiperidin-4-yl)-6-(6-fluoropyridin-3-yl)-1H-pyrazolo[3,4-d]pyrimidin-4-yl)-5-nitrothiophene-2-carboxamide]",> 5000
6,"CC(C)(C)C(=O)N1CCC(n2ncc3c(NC(=O)c4ccc([N+](=O)[O-])s4)nc(-c4ccc(F)nc4)nc32)CC1 [Compound 9-8, N-(6-(6-fluoropyridin-3-yl)-1-(1-pivaloylpiperidin-4-yl)-1H-pyrazolo[3,4,d]pyrimidin-4-yl)-5-nitrothiophene-2-carboxamide]",1900
7,O=C(Nc1nc(-c2ccc(Cl)cc2)nc2c1cnn2C1CCN(C(=O)OCCCC(F)(F)F)CC1)c1ccc([N+](=O)[O-])s1 [Compound 9-9],1070
8,"CCOCCOCCOC(=O)N1CCC(n2ncc3c(NC(=O)c4ccc([N+](=O)[O-])s4)nc(-c4cccs4)nc32)CC1 [Compound 9-10, 2-(2-ethoxyethoxy)ethyl 4-(4-(5-nitrothiophene-2-carboxamido)-6-(thiophen-2-yl)-1H-pyrazolo[3,4-d]pyrimidin-1-yl)piperidine-1-carboxylate]",> 3000
9,"CCOCCOCCOC(=O)N1CCC(n2ncc3c(NC(=O)c4ccc([N+](=O)[O-])s4)nc(-c4ccc(Cl)cc4)nc32)CC1 [Compound 9-11, 2-(2-ethoxyethoxy)ethyl 4-(6-(4-chlorophenyl)-4-(5-nitrothiophene-2-carboxamido)-1H-pyrazolo[3,4-d]pyrimidin-1-yl)piperidine-1-carboxylate]",> 1250
10,"COCCOC(=O)N1CCC(n2ncc3c(NC(=O)c4ccc([N+](=O)[O-])s4)nc(-c4ccc(Cl)cc4)nc32)CC1 [Compound 9-12, 2-methoxyethyl 4-(6-(4-chlorophenyl)4-(5-nitrothiophene-2-carboxamido)-1H-pyrazolo[3,4-d]pyrimidin-1-yl)piperidine-1-carboxylate]",1860
11,"CCOCCOC(=O)N1CCC(n2ncc3c(NC(=O)c4ccc([N+](=O)[O-])s4)nc(-c4ccc(Cl)cc4)nc32)CC1 [Compound 9-13, 2-ethoxyethyl 4-(6-(4-chlorophenyl)-4-(5-nitrothiophene-2-carboxamido)-1H-pyrazolo [3,4-d]pyrimidin-1-yl)piperidine-1-carboxylate]",1620

# Same assay, conditions: Homo sapiens, 48 h, Table 10, MTS, 2 days drug incubation, 50% reduction vs time zero, read-out: Hep3B LC50
row,Structure (SMILES),LC50 [nM]
1,"O=C(Nc1nc(N2CCC(F)(F)C2)nc2c1cnn2C1CCCCC1)c1ccc([N+](=O)[O-])s1 [Compound 10-1, N-(1-cyclohexyl-6-(3,3-difluoropyrrolidin-1-yl)-1H-pyrazolo[3,4-d]pyrimidin-4-yl)-5-nitrothiophene-2-carboxamide]",1250
2,"O=C(Nc1nc(N2CCC(F)(F)CC2)nc2c1cnn2C1CCCCC1)c1ccc([N+](=O)[O-])s1 [Compound 10-2, N-(1-cyclohexyl-6-(4,4-difluoropiperidin-1-yl)-1H-pyrazolo[3,4-d]pyrimidin-4-yl)-5-nitrothiophene-2-carboxamide]",3120
3,"O=C(Nc1nc(N2CCC[C@H]2CO)nc2c1cnn2C1CCCCC1)c1ccc([N+](=O)[O-])s1 [Compound 10-3, (S)—N-(1-cyclohexyl-6-(2-(hydroxymethyl)pyrrolidin-1-yl)-1H-pyrazolo[3,4-d]pyrimidin-4-yl)-5-nitrothiophene-2-carboxamide]",> 5000
4,"O=C(Nc1nc(-c2ccco2)nc2c1cnn2C1CCCCC1)c1ccc([N+](=O)[O-])s1 [Compound 10-4, N-(1-cyclohexyl-6-(furan-2-yl)-1H-pyrazolo[3,4-d]pyrimidin-4-yl)-5-nitrothiophene-2-carboxamide]",1190

# — patent US20240150356A1, “Pyrimidine amide compounds and use thereof” (ALPHALA CO., LTD., priority 2019, published 2024)
